Measurements published in the supplement of paper PMC10307832.

What follows are cell lines tested with N#CC1(c2ccc(NC(=O)c3cccnc3NCc3ccncc3)cc2)CCCC1 [Apatinib] + C[C@]1(O)C[C@@H](c2nc(-c3ccc4ccc(-c5ccccc5)nc4c3)c3c(N)nccn32)C1 [Linsitinib] (partner 1 µM) (assay: relative viability (nuclei count vs DMSO), 5 days (fraction); higher = more cells survive). Settings: first compound 0.08 µM.
In short: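 Lung cancer cell lines, seeded in 1536-well plates, were treated the following day by pin tool with a single drug or with five library-drug doses (not always all listed) in √10 steps on top of a fixed anchor-drug dose. Cells were fixed and nuclei stained in one step after 5 days, and nuclei were counted. Relative viability is the nuclei count for treated wells divided by that for vehicle wells, reported as medians of duplicate plates.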

Cell Line	relative viability
A-427	1.1
BEN	0.864
CAL-12T	0.875
COR-L23	1.09
COR-L 105	0.994
Calu-6	0.948
EBC-1	0.935
EKVX	1.04
EMC-BAC-2	0.815
EPLC-272H	1.19
H3255	1.17
HARA	1.04
HCC-15	1.02
HCC-44	0.673
HCC-78	0.631
HCC-366	0.899
HCC-827	0.995
HOP-62	1.19
IA-LM	0.56
LC-2-ad	0.863
LCLC-97TM1	0.224
LCLC-103H	1.1
LK-2	0.602
LOU-NH91	0.94
LU99A	0.589
LXF-289	0.974
NCI-H23	0.694
NCI-H1299	0.989
NCI-H1563	1.28
NCI-H1703	0.458

Same assay, conditions: first compound 0.253 µM

Cell Line	relative viability
201T	1.02
A549	0.647
A-427	1.06
ABC-1	0.861
BEN	0.933
CAL-12T	0.879
COR-L23	0.927
COR-L 105	1.15
Calu-6	1
EBC-1	0.981
EKVX	1.09
EMC-BAC-2	0.816
EPLC-272H	1.07
H3255	0.819
HARA	0.983
HCC-15	0.937

Cell Line	relative viability
HCC-44	0.759
HCC-78	0.395
HCC-366	0.732
HCC-827	0.937
IA-LM	0.383
LC-2-ad	0.831
LCLC-97TM1	0.169
LCLC-103H	1.05
LK-2	0.356
LOU-NH91	0.916
LU99A	0.549
LXF-289	0.964
NCI-H23	0.652
NCI-H1299	0.984
NCI-H1563	1.22
NCI-H1703	0.657

Same assay, conditions: first compound 0.8 µM

Cell Line	relative viability
201T	1.09
A549	0.686
A-427	1.07
ABC-1	0.869
BEN	0.88
CAL-12T	0.819
COR-L23	0.931
COR-L 105	0.705
Calu-6	0.912
EBC-1	0.955
EKVX	0.985
EMC-BAC-2	0.766
EPLC-272H	1.23
H3255	0.954
HARA	0.994
HCC-15	0.813
HCC-44	0.66

Cell Line	relative viability
HCC-78	0.536
HCC-366	0.571
HCC-827	1.01
HOP-62	0.896
IA-LM	0.763
LC-2-ad	0.864
LCLC-97TM1	0.173
LCLC-103H	1.06
LK-2	0.631
LOU-NH91	0.717
LU99A	0.515
LXF-289	0.96
NCI-H23	0.501
NCI-H1299	0.958
NCI-H1563	1.13
NCI-H1703	0.441

Same assay, conditions: first compound 2.53 µM

Cell Line	relative viability
201T	1.05
A549	0.649
A-427	1.11
ABC-1	0.839
BEN	0.81
CAL-12T	0.762
COR-L23	0.746
COR-L 105	0.985
Calu-6	0.928
EBC-1	0.685
EKVX	0.862
EMC-BAC-2	0.72
EPLC-272H	1.23
H3255	0.896
HARA	0.995
HCC-15	0.878
HCC-44	0.711

Cell Line	relative viability
HCC-78	0.405
HCC-366	0.678
HCC-827	0.956
HOP-62	0.821
IA-LM	0.417
LC-2-ad	0.652
LCLC-97TM1	0.164
LCLC-103H	1.09
LK-2	0.503
LOU-NH91	0.845
LU99A	0.457
LXF-289	0.941
NCI-H23	0.568
NCI-H1299	0.853
NCI-H1563	1.12
NCI-H1703	0.0986

Same assay, conditions: first compound 8 µM

Cell Line	relative viability
201T	1.04
A549	0.563
A-427	1.09
ABC-1	0.882
BEN	0.699
CAL-12T	0.654
COR-L23	0.713
COR-L 105	0.676
Calu-6	0.85
EBC-1	0.567
EKVX	0.795
EMC-BAC-2	0.78
EPLC-272H	1.12
H3255	0.836
HARA	0.882
HCC-15	0.878
HCC-44	0.592

Cell Line	relative viability
HCC-78	0.401
HCC-366	0.616
HCC-827	0.737
HOP-62	0.786
IA-LM	0.341
LC-2-ad	0.507
LCLC-97TM1	0.142
LCLC-103H	0.993
LK-2	0.399
LOU-NH91	0.777
LU99A	0.47
LXF-289	0.896
NCI-H23	0.542
NCI-H1299	0.77
NCI-H1563	1.03
NCI-H1703	0.132
